Each compound was assayed against T1, hGluR1 flip (Homo sapiens, UniProt P42261) (assay: AMPA receptor function-enhancing activity using calcium influx as index). Settings: test compound 30 μM with 3 mM glutamic acid; CHO-K1/GluR1 flip/stargazin-expressing cells; 100% = 3 mM glutamic acid + 300 μM cyclothiazide, 0% = 3 mM glutamic acid alone.
T1 construct: expressed in transfected cells; host or cells: CHO-K1
Type: cell-based
Description: Experimental Example 1 Measurement Method of AMPA Receptor Function-Enhancing Activity of Compound Using Calcium Influx as Index
(1) Construction of Expression Gene
Human GluR^1 flip cDNA was amplified by PCR method using forward primer […] (SEQ ID NO: 1) and reverse primer […] (SEQ ID NO: 2) artificially synthesized using human brain-derived cDNA (BD Bioscience) as a template. The amplified product was digested with restriction enzymes EcoRI, NotI (TAKARA SHUZO CO. LTD.) and incorporated into the same site of pcDNA3.1 (+) (Invitrogen) to construct pcDNA3.1(+)/human GluR1 flip gene. Human stargazin cDNA was amplified by PCR method using forward primer […] (SEQ ID NO: 3) and reverse primer […] (SEQ ID NO: 4) artificially synthesized using human hippocampus cDNA as a template. The amplified product was digested with restriction enzymes XhoI, BamHI (TAKARA SHUZO CO. LTD.) and incorporated into the same site of pcDNA3.1(−) (Invitrogen) to construct pcDNA3.1 Zeo(−)/human stargazing gene.
(2) Construction of GluR1 Flip/Stargazin Expressing Cell
CHO-K1 cells passaged in a culture medium (Ham's F12 medium (Invitrogen) added with 10% inactivated fetal bovine serum (Morgate) and penicillin, streptomycin (Invitrogen)) were detached using 0.05% trypsin and 0.53 mM EDTA (Invitrogen) diluted with D-PBS(−). The detached cells were suspended in a culture medium, and recovered by centrifugation at 1,000 rpm. The recovered cells were re-suspended in D-PBS(−) and added into 0.4 cm electroporation cuvette (BioRad). pcDNA3.1(+)/human GluR1 flip gene (5 μg) and pcDNA3.1 Zeo(−)/human stargazin gene (15 μg) were added, and introduced into CHO-K1 cells under the conditions of 950 μFd, […] and using Gene Pulser II (BioRad). The introduced cells were cultured overnight in a culture medium. The next day, using a selection medium (culture medium added with zeocin (Invitrogen) at 250 μg/mL), the cells were plated in a 96 well plate at 250 cells/well. The clones showing drug resistance were selected, and GluR1 flip/stargazin expression clones were selected by an assay method shown below using calcium influx as an index.
(3) Measurement Method of AMPA Receptor Function-Enhancing Activity of Compound, Using Calcium Influx as an Index
CHO-K1/GluR1 flip/stargazin-expressing cells were plated on a 384 well black bottom transparent plate, and cultured for 2 days in a CO2 incubator (SANYO ELECTRIC Co. Ltd.) at 37° C. The medium of the cell plate was removed. A calcium indicator (Calcium5 Assay Kit, Molecular Devices) was diluted with an assay buffer (HESS (Thermo Fisher Scientific), 0.1% BSA (Merck Millipoer) and 10 mM HEPES (Thermo Fisher Scientific)), and 1.25 mM probenecid (Dojindo Laboratories) was added thereto. The mixture prepared above was added at 30 μL/well (100 μL/well in case of 96 wells) to the well, and the well was left standing in 37° C., CO2 incubator for 1 hr. The cell plate was set in CellLux (PerkinElmer), a mixture (15 μL) (50 μL/well in case of 96 wells) of 9 mM glutamic acid (final concentration 3 mM) diluted with an assay buffer and a test compound (test compound concentration 30 μM) was added thereto, and variation in the amount of fluorescence was measured for 3 min. The variation of fluorescence level of a well added with final concentration 3 mM of glutamic acid and 300 μM cyclothiazide (TOCRIS) was defined as 100%, the variation of fluorescence level of a well added with final concentration 3 mM of glutamic acid alone was defined as 0%, and the activity of the compound was calculated by the following formula. activity (%)=(X−C)/(T−C)×100 • T: variation of fluorescence level of well added with final concentration 3 mM of glutamic acid and 300 μM cyclothiazide • C: variation of fluorescence level of well added with final concentration 3 mM of glutamic acid alone • X: variation of fluorescence level of well added with test compound

T1 sequence (P42261 19-906 isoform P42261-2 limits assumed): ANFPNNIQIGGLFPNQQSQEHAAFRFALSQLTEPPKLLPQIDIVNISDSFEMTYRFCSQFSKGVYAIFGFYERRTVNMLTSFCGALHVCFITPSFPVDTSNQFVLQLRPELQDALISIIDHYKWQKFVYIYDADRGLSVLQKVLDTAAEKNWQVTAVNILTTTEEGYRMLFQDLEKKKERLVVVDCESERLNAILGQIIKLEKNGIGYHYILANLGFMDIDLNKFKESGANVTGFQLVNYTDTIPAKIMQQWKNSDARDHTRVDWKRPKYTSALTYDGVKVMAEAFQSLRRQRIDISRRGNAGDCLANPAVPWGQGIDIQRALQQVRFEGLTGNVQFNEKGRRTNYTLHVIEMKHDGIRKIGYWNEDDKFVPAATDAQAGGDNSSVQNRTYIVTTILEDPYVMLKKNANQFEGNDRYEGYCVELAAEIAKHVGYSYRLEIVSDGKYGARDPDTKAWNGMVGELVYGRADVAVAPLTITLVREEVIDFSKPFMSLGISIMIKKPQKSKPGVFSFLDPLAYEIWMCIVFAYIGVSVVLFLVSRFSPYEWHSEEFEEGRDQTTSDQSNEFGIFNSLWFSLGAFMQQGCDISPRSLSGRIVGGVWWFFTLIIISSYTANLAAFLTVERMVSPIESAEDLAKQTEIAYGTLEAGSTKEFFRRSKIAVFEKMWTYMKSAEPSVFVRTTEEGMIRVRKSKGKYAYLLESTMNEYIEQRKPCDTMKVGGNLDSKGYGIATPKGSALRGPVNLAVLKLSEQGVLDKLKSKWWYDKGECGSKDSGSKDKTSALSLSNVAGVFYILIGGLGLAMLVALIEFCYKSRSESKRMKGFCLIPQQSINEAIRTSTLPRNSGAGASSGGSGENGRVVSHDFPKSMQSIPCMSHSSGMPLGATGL
T1 sequence (Q9Y698 whole entry partner): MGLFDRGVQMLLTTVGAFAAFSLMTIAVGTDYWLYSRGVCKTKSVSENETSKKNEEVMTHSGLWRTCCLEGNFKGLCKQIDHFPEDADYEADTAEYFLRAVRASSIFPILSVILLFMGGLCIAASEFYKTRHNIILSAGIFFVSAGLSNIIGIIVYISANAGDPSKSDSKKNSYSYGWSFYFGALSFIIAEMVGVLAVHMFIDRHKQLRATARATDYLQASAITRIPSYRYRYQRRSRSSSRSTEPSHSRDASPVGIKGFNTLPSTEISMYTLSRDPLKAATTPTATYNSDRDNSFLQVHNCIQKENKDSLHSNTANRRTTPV

Structure (SMILES) | activation at 30 µM | hGluR1 flip/30 μM (%)
CN(CC(F)F)C(=O)c1ccc(-c2cccn3c(=O)cc(C(F)(F)F)nc23)cc1 [Example 2, N-(2,2-difluoroethyl)-N-methyl-4-(4-oxo-2-(trifluoromethyl)-4H-pyrido[1,2-a]pyrimidin-9-yl)benzamide] | 103% | 
O=C(c1ccc(-c2cccn3c(=O)cc(C(F)(F)F)nc23)cc1)N1CCCC(F)(F)C1 [Example 3, 9-(4-((3,3-difluoropiperidin-1-yl)carbonyl)phenyl)-2-(trifluoromethyl)-4H-pyrido[1,2-a]pyrimidin-4-one] | 74.8% | 
CC1(O)CCN(C(=O)c2ccc(-c3cccn4c(=O)cc(C(F)(F)F)nc34)cc2)CC1 [Example 7, 9-(4-((4-hydroxy-4-methylpiperidin-1-yl)carbonyl)phenyl)-2-(trifluoromethyl)-4H-pyrido[1,2-a]pyrimidin-4-one] | 94% | 
O=C(c1ccc(-c2cccn3c(=O)cc(C(F)(F)F)nc23)cc1)N1CCC(O)(C(F)(F)F)C1 (stereo not shown) [Example 16, 9-(4-((3-hydroxy-3-(trifluoromethyl)pyrrolidin-1-yl)carbonyl)phenyl)-2-(trifluoromethyl)-4H-pyrido[1,2-a]pyrimidin-4-one] |  | 88.3%
O=C(c1ccc(-c2cccn3c(=O)c(Br)c(C(F)(F)F)nc23)cc1)N1CCOC(F)(F)C1 [Example 19, 3-bromo-9-(4-((2,2-difluoromorpholin-4-yl)carbonyl)phenyl)-2-(trifluoromethyl)-4H-pyrido[1,2-a]pyrimidin-4-one] | 79.4% | 
Cc1c(C(F)(F)F)nc2c(-c3ccc(C(=O)N4CC(F)(F)C4)cc3)cccn2c1=O [Example 24, 9-(4-((3,3-difluoroazetidin-1-yl)carbonyl)phenyl)-3-methyl-2-(trifluoromethyl)-4H-pyrido[1,2-a]pyrimidin-4-one] | 76.9% | 
O=C(NCC(F)F)c1ccc(-c2cccn3c(=O)cc(C(F)(F)F)nc23)cc1 [Example 26, N-(2,2-difluoroethyl)-4-(4-oxo-2-(trifluoromethyl)-4H-pyrido[1,2-a]pyrimidin-9-yl)benzamide] | 74.9% | 
O=C(c1ccc(-c2cccn3c(=O)cc(C(F)(F)F)nc23)cc1)N1CCC(O)(C(F)(F)F)CC1 [Example 33, 9-(4-((4-hydroxy-4-(trifluoromethyl)piperidin-1-yl)carbonyl)phenyl)-2-(trifluoromethyl)-4H-pyrido[1,2-a]pyrimidin-4-one] | 79.4% | 
N#CC1CCCN(C(=O)c2ccc(-c3cccn4c(=O)c(Cl)c(C(F)(F)F)nc34)cc2)C1 (stereo not shown) [Example 38, 1-(4-(3-chloro-4-oxo-2-(trifluoromethyl)-4H-pyrido[1,2-a]pyrimidin-9-yl)benzoyl)piperidine-3-carbonitrile] | 99.3% | 
CN(CCC#N)C(=O)c1ccc(-c2cccn3c(=O)c(Cl)c(C(F)(F)F)nc23)cc1 [Example 39, 4-(3-chloro-4-oxo-2-(trifluoromethyl)-4H-pyrido[1,2-a]pyrimidin-9-yl)-N-(2-cyanoethyl)-N-methylbenzamide] | 85.9% | 
O=C(NCC(F)F)c1ccc(-c2cccn3c(=O)cc(C(F)(F)F)nc23)cc1F [Example 42] | 83.6% | 
O=C(NCC(F)(F)F)c1ccc(-c2cccn3c(=O)cc(C(F)(F)F)nc23)cc1F [Example 43, 2-fluoro-4-(4-oxo-2-(trifluoromethyl)-4H-pyrido[1,2-a]pyrimidin-9-yl)-N-(2,2,2-trifluoroethyl)benzamide] | 84.1% | 
O=C(c1ccc(-c2cccn3c(=O)cc(C(F)(F)F)nc23)cc1F)N1CCOCC1 [Example 44, 9-(3-fluoro-4-(morpholin-4-ylcarbonyl)phenyl)-2-(trifluoromethyl)-4H-pyrido[1,2-a]pyrimidin-4-one] | 73.8% | 
Cc1c(C(F)(F)F)nc2c(-c3ccc(C(=O)N4CCOCC4)c(F)c3)cccn2c1=O [Example 45, 9-(3-fluoro-4-(morpholin-4-ylcarbonyl)phenyl)-3-methyl-2-(trifluoromethyl)-4H-pyrido[1,2-a]pyrimidin-4-one] | 82.6% | 

Next, values leading:

activation at 30 µM | hGluR1 flip/30 μM (%) | Structure (SMILES)
 | 88.7% | O=C(c1ccc(-c2cccn3c(=O)cc(C(F)(F)F)nc23)cc1)N1CCC(O)(C(F)(F)F)C1 (stereo not shown) [Example 6, 9-(4-((3-hydroxy-3-(trifluoromethyl)pyrrolidin-1-yl)carbonyl)phenyl)-2 (trifluoromethyl)-4H-pyrido[1,2-a]pyrimidin-4-one]
79.6% |  | CCC1(O)CCN(C(=O)c2ccc(-c3cccn4c(=O)cc(C(F)(F)F)nc34)cc2)CC1 [Example 8, 9-(4-((4-ethyl-4-hydroxypiperidin-1-yl)carbonyl)phenyl)-2-(trifluoromethyl)-4H-pyrido[1,2-a]pyrimidin-4-one]
72.7% |  | O=C(c1ccc(-c2cccn3c(=O)cc(C(F)(F)F)nc23)cc1)N1CCC(O)C(F)(F)C1 (stereo not shown) [Example 10, 9-(4-((3,3-difluoro-4-hydroxypiperidin-1-yl)carbonyl)phenyl)-2-(trifluoromethyl)-4H-pyrido[1,2-a]pyrimidin-4-one]
79.9% |  | O=C(c1ccc(-c2cccn3c(=O)cc(C(F)(F)F)nc23)cc1)N1CCC(O)(C(F)(F)F)C1 (stereo not shown) [Example 15, 9-(4-((3-hydroxy-3-(trifluoromethyl)pyrrolidin-1-yl)carbonyl)phenyl)-2-(trifluoromethyl)-4H-pyrido[1,2-a]pyrimidin-4-one]
95.2% |  | O=C(c1ccc(-c2cccn3c(=O)c(Cl)c(C(F)(F)F)nc23)cc1)N1CCOCC1 [Example 17, 3-chloro-9-(4-(morpholin-4-ylcarbonyl)phenyl)-2-(trifluoromethyl)-4H-pyrido[1,2-a]pyrimidin-4-one]
83.5% |  | Cc1c(C(F)(F)F)nc2c(-c3ccc(C(=O)N4CCOC(C(F)F)C4)cc3)cccn2c1=O (stereo not shown) [Example 23, 9-(4-((2-(difluoromethyl)morpholin-4-yl)carbonyl)phenyl)-3-methyl-2-(trifluoromethyl)-4H-pyrido[1,2-a]pyrimidin-4-one]
91% |  | CCN(CCC#N)C(=O)c1ccc(-c2cccn3c(=O)c(Br)c(C(F)(F)F)nc23)cc1 [Example 25, 4-(3-bromo-4-oxo-2-(trifluoromethyl)-4H-pyrido[1,2-a]pyrimidin-9-yl)-N-(2-cyanoethyl)-N-ethylbenzamide]
79.3% |  | CC1(O)CCN(C(=O)c2ccc(-c3cccn4c(=O)cc(C(F)(F)F)nc34)cc2)C1 (stereo not shown) [Example 28, 9-(4-((3-hydroxy-3-methylpyrrolidin-1-yl)carbonyl)phenyl)-2-(trifluoromethyl)-4H-pyrido[1,2-a]pyrimidin-4-one]
79.8% |  | O=C(NCC(F)(F)F)c1ccc(-c2cccn3c(=O)c(Cl)c(C(F)(F)F)nc23)cc1 [Example 35, 4-(3-chloro-4-oxo-2-(trifluoromethyl)-4H-pyrido[1,2-a]pyrimidin-9-yl)-N-(2,2,2-trifluoroethyl)benzamide]
101% |  | O=C(c1ccc(-c2cccn3c(=O)cc(C(F)(F)F)nc23)cc1)N1CCCC(O)(C(F)(F)F)C1 (stereo not shown) [Example 36, 9-(4-((3-hydroxy-3-(trifluoromethyl)piperidin-1-yl)carbonyl)phenyl)-2-(trifluoromethyl)-4H-pyrido[1,2-a]pyrimidin-4-one]
74.9% |  | Cc1c(C(F)(F)F)nc2c(-c3ccc(C(=O)N4CCOCC4)cc3)cccn2c1=O [Example 37, 3-methyl-9-(4-(morpholin-4-ylcarbonyl)phenyl)-2-(trifluoromethyl)-4H-pyrido[1,2-a]pyrimidin-4-one]
